This is an account of results in US5834284A, “N-acetylglucosaminyl transferase gene coding therefor and process for production thereof” (Suntory Limited, priority 1992, dated 1998).

In the assay the target is T1, GnT-V (β1,6-N-acetylglucosaminyl transferase) (Homo sapiens, UniProt Q09328).
T1 construct: 73/60 kDa
T1 sequence (Q09328 31-741): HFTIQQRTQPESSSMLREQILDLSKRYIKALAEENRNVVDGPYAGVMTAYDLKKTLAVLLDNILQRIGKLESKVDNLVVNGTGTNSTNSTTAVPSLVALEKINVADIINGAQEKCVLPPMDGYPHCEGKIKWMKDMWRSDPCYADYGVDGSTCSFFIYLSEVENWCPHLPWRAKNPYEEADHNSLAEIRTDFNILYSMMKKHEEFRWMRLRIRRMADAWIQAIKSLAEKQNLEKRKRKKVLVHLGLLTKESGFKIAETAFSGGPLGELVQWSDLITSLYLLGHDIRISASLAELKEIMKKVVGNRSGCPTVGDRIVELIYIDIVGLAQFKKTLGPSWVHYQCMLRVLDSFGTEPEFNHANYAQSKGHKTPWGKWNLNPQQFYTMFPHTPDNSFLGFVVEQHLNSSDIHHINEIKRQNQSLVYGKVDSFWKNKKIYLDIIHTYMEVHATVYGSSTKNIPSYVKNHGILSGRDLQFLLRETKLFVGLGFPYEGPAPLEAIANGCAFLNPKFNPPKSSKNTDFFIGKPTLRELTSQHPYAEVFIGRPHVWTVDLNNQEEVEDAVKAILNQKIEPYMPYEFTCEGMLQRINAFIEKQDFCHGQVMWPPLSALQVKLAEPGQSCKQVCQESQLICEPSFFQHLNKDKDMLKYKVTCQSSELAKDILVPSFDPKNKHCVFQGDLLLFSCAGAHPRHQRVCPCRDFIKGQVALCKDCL
Nature of the assay: GnT-V enzyme activity assay with fluorescence-labeled sugar acceptors, product separated by HPLC. The assay is classed as biochemical. The following applies: for Relative reaction rate: acceptor 70 μM, purified GnT-V 0.1 mg protein/ml, GnGn-bi-PA = 100; for reactivity relative to GnGn-bi-PA acceptor taken as 100%: substrate specificity. The text has this:
An enzyme activity can be easily assayed by labeling an acceptor with a radioisotope or with fluorescent substance, adding the enzyme and separating the reaction product by high performance liquid chromatography (HPLC). More specifically, the method reported by Tanigichi et al. (Taniguchi, N., Nishikawa, A., Fujii, S., and Gu. J., Methods Enzymol. 179, 397-408 (1989); Nishikawa, H., Gu, J., Fujii, S., and Tanigichi, N., Biochem. Biophys. Acta, 1035, 313-318 (1990)) may be followed.
Namely, the enzyme activity of GnT-V can be assayed using GnGn-2-aminopyridine (GnGn-bi-PA) as an acceptor, and UDP-GluNAc (Sigma) as a donor. Activity is shown by an amount of transferred N-acetylglucosamine/hour/mg protein. Note, an amount of protein can be measured according to a reported method (Redinbaugh, M. G., and Turley, R. B., Anal. Biochem. 153, 267-271 (1986)) using a BCA kit (Pierce Chemical Company, Rockford, Ill.) and using bovine serum albumin as a standard.
Substrate specificity was determined using the following compound as sugar acceptors according to the above-mentioned enzyme activity measuring method. [drawing 1]
GnGnF--, GnGF--, GGnF--, Gn(Gn)GnF--, Gn(Gn)Gn--, GG--, GnGn--, MM-- and GnM-- were isolated from the bovine IgG treated with anhydrous hydrazine and then labeled with a fluorescence label according to Hase et al. method (Hase, S., Ibuki, T., and Ikehara, T., J. Biochem. 95, 197-203 (1984). The purified GnT-V was diluted with PBS buffer to a final concentration of 0.1 mg protein/ml, and then reacted with each fluorescence-labeled sugar acceptor. A result is shown in Table 2.

Consider `CC(=O)N[C@H]1[C@H](O[C@@H]([C@H](O)[C@H](CNc2ccccn2)NC(C)=O)[C@H](O)CO)O[C@H](CO)[C@@H](O[C@@H]2O[C@H](CO[C@H]3O[C@H](CO)[C@@H](O)[C@H](O)[C@@H]3O[C@@H]3O[C@H](CO)[C@@H](O)[C@H](O)[C@H]3NC(C)=O)[C@@H](O)[C@H](O[C@H]3O[C@H](CO)[C@@H](O[C@@H]4O[C@H](CO)[C@@H](O)[C@H](O)[C@H]4NC(C)=O)[C@H](O)[C@@H]3O[C@@H]3O[C@H](CO)[C@@H](O)[C@H](O)[C@H]3NC(C)=O)[C@@H]2O)[C@@H]1O` [GnGnGn-tri-PA, GlcNAcβ1-2(GlcNAcβ1-4)Manα1-3(GlcNAcβ1-2Manα1-6)-Manβ1-4GlcNAcβ1-4GlcNAc-2-aminopyridine], for which the “reaction of the enzyme with acceptor (qualitative)” value (from here on “reaction of the enzyme”) is “reacts”, the Relative reaction rate is 125 and the “reactivity relative to GnGn-bi-PA acceptor taken as 100%” value was “about 125%”.
`[Mn+2]` [Mn^2+]: the “requirement for expression of GnT-V activity” value is “not necessary”.
`CC(=O)N[C@H]1[C@H](O[C@@H]([C@H](O)[C@H](CNc2ccccn2)NC(C)=O)[C@H](O)CO)O[C@H](CO)[C@@H](O[C@@H]2O[C@H](CO[C@H]3O[C@H](CO)[C@@H](O)[C@H](O)[C@@H]3O[C@@H]3O[C@H](CO)[C@@H](O)[C@H](O)[C@H]3NC(C)=O)[C@@H](O[C@@H]3O[C@H](CO)[C@@H](O)[C@H](O)[C@H]3NC(C)=O)[C@H](O[C@H]3O[C@H](CO)[C@@H](O)[C@H](O)[C@@H]3O[C@@H]3O[C@H](CO)[C@@H](O)[C@H](O)[C@H]3NC(C)=O)[C@@H]2O)[C@@H]1O` [Gn(Gn)Gn-bi-PA, GlcNAcβ1-2Manα1-2Manα1-6)-Manβ1-4GlcNAcβ1-4GlcNAc-2-aminopyridine] returned a Relative reaction rate of 0.
Consider `CC(=O)N[C@H]1[C@H](O[C@@H]([C@H](O)[C@H](CNc2ccccn2)NC(C)=O)[C@H](O)CO)O[C@H](CO)[C@@H](O[C@@H]2O[C@H](CO[C@H]3O[C@H](CO)[C@@H](O)[C@H](O)[C@@H]3O[C@@H]3O[C@H](CO)[C@@H](O[C@@H]4O[C@H](CO)[C@H](O)[C@H](O)[C@H]4O)[C@H](O)[C@H]3NC(C)=O)[C@@H](O)[C@H](O[C@H]3O[C@H](CO)[C@@H](O)[C@H](O)[C@@H]3O[C@@H]3O[C@H](CO)[C@@H](O[C@@H]4O[C@H](CO)[C@H](O)[C@H](O)[C@H]4O)[C@H](O)[C@H]3NC(C)=O)[C@@H]2O)[C@@H]1O` [GG-bi-PA, Galβ1-4GlcNAcβ1-2Manα1-3(Galβ1-4GlcNAcβ1-2Manα1-6)Manβ1-4GlcNAcβ1-4GlcNAc-2-aminopyridine], for which the Relative reaction rate is 0.
Same read-out and setting: the same measure for `CC(=O)N[C@H]1[C@H](O[C@H]2[C@@H](O)[C@@H](CO)O[C@@H](O[C@@H]([C@H](O)[C@@H](O)CNc3ccccn3)[C@H](O)CO)[C@@H]2O)O[C@H](CO)[C@@H](O[C@@H]2O[C@H](CO)[C@H](O)[C@H](O)[C@H]2O)[C@@H]1O` [Lacto-N-neotetraose-PA, Galβ1-4GlcNAcβ1-3Galβ1-4Glc-2-aminopyridine]: 0; for `CC(=O)N[C@H]1[C@H](O[C@@H]([C@H](O)[C@H](CNc2ccccn2)NC(C)=O)[C@H](O)CO[C@@H]2O[C@@H](C)[C@@H](O)[C@@H](O)[C@@H]2O)O[C@H](CO)[C@@H](O[C@@H]2O[C@H](CO[C@H]3O[C@H](CO)[C@@H](O)[C@H](O)[C@@H]3O[C@@H]3O[C@H](CO)[C@@H](O)[C@H](O)[C@H]3NC(C)=O)[C@@H](O)[C@H](O[C@H]3O[C@H](CO)[C@@H](O)[C@H](O)[C@@H]3O[C@@H]3O[C@H](CO)[C@@H](O[C@@H]4O[C@H](CO)[C@H](O)[C@H](O)[C@H]4O)[C@H](O)[C@H]3NC(C)=O)[C@@H]2O)[C@@H]1O` [GnGF-bi-PA, Galβ1-4GlcNAcβ1-2Manα1-3(GlcNAcβ1-2Manα1-6)Manβ1-4GlcNAcβ1-4GlcNAc(Fucα1-6)-2-aminopyridine]: 3; for `CC(=O)N[C@H]1[C@H](O[C@@H]([C@H](O)[C@H](CNc2ccccn2)NC(C)=O)[C@H](O)CO)O[C@H](CO)[C@@H](O[C@@H]2O[C@H](CO[C@H]3O[C@H](CO)[C@@H](O)[C@H](O)[C@@H]3O)[C@@H](O)[C@H](O[C@H]3O[C@H](CO)[C@@H](O)[C@H](O)[C@@H]3O)[C@@H]2O)[C@@H]1O` [MM-PA, Manα1-3Manα1-6)Manβ1-4GlcNAcβ1-4GlcNAc-2-aminopyridine]: 0.
With `CC(=O)N[C@H]1[C@H](O[C@@H]([C@H](O)[C@H](CNc2ccccn2)NC(C)=O)[C@H](O)CO[C@@H]2O[C@@H](C)[C@@H](O)[C@@H](O)[C@@H]2O)O[C@H](CO)[C@@H](O[C@@H]2O[C@H](CO[C@H]3O[C@H](CO)[C@@H](O)[C@H](O)[C@@H]3O[C@@H]3O[C@H](CO)[C@@H](O)[C@H](O)[C@H]3NC(C)=O)[C@@H](O)[C@H](O[C@H]3O[C@H](CO)[C@@H](O)[C@H](O)[C@@H]3O[C@@H]3O[C@H](CO)[C@@H](O)[C@H](O)[C@H]3NC(C)=O)[C@@H]2O)[C@@H]1O` [GnGnF-bi-PA, GlcNAcβ1-2Manα1-3-(GlcNAcβ1-2Manα1-6)Manβ1-4GlcNAcβ1-4GlcNAc(Fucα1-6)-2-aminopyridine], the “reaction of the enzyme” value is “reacts”, the Relative reaction rate is given as 78 and the “reactivity relative to GnGn-bi-PA acceptor taken as 100%” value is “about 78%”.
Regarding `CC(=O)N[C@H]1[C@H](O[C@@H]([C@H](O)[C@H](CNc2ccccn2)NC(C)=O)[C@H](O)CO)O[C@H](CO)[C@@H](O[C@@H]2O[C@H](CO[C@H]3O[C@H](CO)[C@@H](O)[C@H](O)[C@@H]3O[C@@H]3O[C@H](CO)[C@@H](O)[C@H](O)[C@H]3NC(C)=O)[C@@H](O)[C@H](O[C@H]3O[C@H](CO)[C@@H](O)[C@H](O)[C@@H]3O)[C@@H]2O)[C@@H]1O` [GnM-PA, Manα1-3(GlcNAcβ1-2Manα1-6)Manβ1-4GlcNAcβ1-4GlcNAc-2-aminopyridine], the “reaction of the enzyme” value is on record as “reacts”, the Relative reaction rate is 66 and the “reactivity relative to GnGn-bi-PA acceptor taken as 100%” value was “about 66%”.
`CC(=O)N[C@H]1[C@H](O[C@@H]([C@H](O)[C@H](CNc2ccccn2)NC(C)=O)[C@H](O)CO[C@@H]2O[C@@H](C)[C@@H](O)[C@@H](O)[C@@H]2O)O[C@H](CO)[C@@H](O[C@@H]2O[C@H](CO[C@H]3O[C@H](CO)[C@@H](O)[C@H](O)[C@@H]3O[C@@H]3O[C@H](CO)[C@@H](O[C@@H]4O[C@H](CO)[C@H](O)[C@H](O)[C@H]4O)[C@H](O)[C@H]3NC(C)=O)[C@@H](O)[C@H](O[C@H]3O[C@H](CO)[C@@H](O)[C@H](O)[C@@H]3O[C@@H]3O[C@H](CO)[C@@H](O)[C@H](O)[C@H]3NC(C)=O)[C@@H]2O)[C@@H]1O` [GGnF-bi-PA, GlcNAcβ1-2Manα1-3(Galβ1-4GlcNAc2Manα1-6)Manβ1-4GlcNAcβ1-4GlcNAc(Fucα1-6)-2-aminopyridine] displayed a Relative reaction rate of 0.2.
In the case of `O=C(O)CN(CCN(CC(=O)O)CC(=O)O)CC(=O)O` [EDTA], the “inhibition of GnT-V activity” value (in the presence of 20 mM EDTA) is “not inhibited”.
In the case of `CC(=O)N[C@H]1[C@H](O[C@@H]([C@H](O)[C@H](CNc2ccccn2)NC(C)=O)[C@H](O)CO[C@@H]2O[C@@H](C)[C@@H](O)[C@@H](O)[C@@H]2O)O[C@H](CO)[C@@H](O[C@@H]2O[C@H](CO[C@H]3O[C@H](CO)[C@@H](O)[C@H](O)[C@@H]3O[C@@H]3O[C@H](CO)[C@@H](O)[C@H](O)[C@H]3NC(C)=O)[C@@H](O[C@@H]3O[C@H](CO)[C@@H](O)[C@H](O)[C@H]3NC(C)=O)[C@H](O[C@H]3O[C@H](CO)[C@@H](O)[C@H](O)[C@@H]3O[C@@H]3O[C@H](CO)[C@@H](O)[C@H](O)[C@H]3NC(C)=O)[C@@H]2O)[C@@H]1O` [Gn(Gn)GnF-bi-PA, GlcNAcβ1-2Manα1-2Manα1-6)-Manβ1-4GlcNAcβ1-4GlcNAc(Fucα1-6)2-aminopyridine], the Relative reaction rate came out at 0.
As for `CC(=O)N[C@H]1[C@H](O[C@H]2[C@@H](O)[C@@H](CO)O[C@@H](O[C@@H]([C@H](O)[C@@H](O)CNc3ccccn3)[C@H](O)CO)[C@@H]2O)O[C@H](CO)[C@@H](O)[C@@H]1O` [Lacto-N-triaose-PA, GlcNAcβ1-3Galβ1-4Glc-2-aminopyridine], the Relative reaction rate was found to be 0.
